Reference: patent US12318452B2, “Degraders of WEE1 kinase” (DANA-FARBER CANCER INSTITUTE, INC., priority 2018, dated 2025)

Columns and labels:
Type in all cases: cell-based
Wee1 = Wee1 (Homo sapiens, UniProt P30291); experiment: Wee1 degradation immunoblot in OVCAR8 cells; parameters: endogenous in cells; conditions: 5 hours
Method: Whole cell lysates for immunoblotting were prepared by pelleting cells from each cell line at 4° C. (300 g) for 5 minutes. The resulting cell pellets were washed 1× with ice-cold PBS and then resuspended in RIPA lysis buffer (Sigma, cat #R0278) supplemented with protease and phosphatase inhibitor tablets (Roche cat #4906845001). Lysates were clarified at 14,000 rpm for 15 minutes at 4° C. prior to quantification by BCA assay (Pierce™, cat #23225). Whole cell lysates were loaded into Bolt 4-12% Bis-Tris Gels (Thermo Fisher, cat #NW04120BOX) and separated by electrophoreses at 95 V for 1.5 hours. The gels were transferred to a nitrocellulose membrane using the iBlot® Gel Transfer at P3 for 7 minutes (Thermo Fisher, cat #IB23001) and then blocked for 1 hour at room temperature in Odyssey® blocking buffer (LICOR® Biosciences, cat #927-50010). Membranes were probed using antibodies against the relevant proteins at 4° C. overnight in 20% Odyssey® Blocking Buffer in 1×TBST. […]
Compound 13 was profiled in three different ovarian cancer cell lines OVCAR8, COV362, and Kuramochi (FIG. 6C-FIG. 6E). […] After confirming that Compound 13 degraded Wee1 in OVCAR8 cells, with maximal degradation observed at a 100 nM treatment (FIG. 11A), the efficacy of compound 13 and Olaparib combination treatments were evaluated.

pCDK1 Y15 = experiment: Downstream signalling immunoblot in MOLT4 cells (pCDK1 Y15, cleaved PARP, γH2Ax)
Method: Whole cell lysates for immunoblotting were prepared by pelleting cells from each cell line at 4° C. (300 g) for 5 minutes. The resulting cell pellets were washed 1× with ice-cold PBS and then resuspended in RIPA lysis buffer (Sigma, cat #R0278) supplemented with protease and phosphatase inhibitor tablets (Roche cat #4906845001). Lysates were clarified at 14,000 rpm for 15 minutes at 4° C. prior to quantification by BCA assay (Pierce™, cat #23225). Whole cell lysates were loaded into Bolt 4-12% Bis-Tris Gels (Thermo Fisher, cat #NW04120BOX) and separated by electrophoreses at 95 V for 1.5 hours. The gels were transferred to a nitrocellulose membrane using the iBlot® Gel Transfer at P3 for 7 minutes (Thermo Fisher, cat #IB23001) and then blocked for 1 hour at room temperature in Odyssey® blocking buffer (LICOR® Biosciences, cat #927-50010). Membranes were probed using antibodies against the relevant proteins at 4° C. overnight in 20% Odyssey® Blocking Buffer in 1×TBST. Membranes were then washed three times with 1×TBST (at least 5 minutes per wash) followed by incubation with the IRDye® goat anti-mouse (LICOR®, cat #926-32210) or goat anti-rabbit (LICOR®, cat #926-32211) secondary antibody (diluted 1:10,000) in 20% Odyssey® Blocking Buffer in 1×TBST for 1 hour at room temperature. After three washes with 1×TBST (at least 5 minutes per wash), the immunoblots were visualized using the ODYSSEY® Infrared Imaging System (LICOR®).
(§1) MOLT4 cells were plated at 1.5 million cells per well in a 6-well plate, with 3 mL of media per well. Cells were then immediately treated with the indicated concentration of the indicated compound and incubated for the indicated amount of time. Cells were collected by transferring each well to a 15 mL conical, centrifuging (1000 rpm for 3 min), then washing the cell pellet 2× with cold PBS. Each cell pellet was then lysed in 100 μL of RIPA lysis buffer (+protease/phosphatase inhibitors). Samples were normalized and prepped in 4×LDS+10% β-mercaptoethanol and boiled for 5 min at 95° C. Lysates were probed for specified proteins by western blotting using the Bolt® system (Life Technologies™)
The effects of targeted Wee1 degradation on the cell cycle were evaluated. Wee1 is required for the temporal regulation of CDK1 at the G2/M cell-cycle checkpoint, and Wee1 loss therefore […] via activation of CDK1. Following loss of Wee1 activity, cells are expected to enter mitosis before completing DNA repair, ultimately resulting in excessive unrepaired DNA damage, mitotic catastrophe, and apoptosis (Beck et al., Mol. Cell Biol. 32:4226-4236 (2012)).

PLK1 = PLK1 (Homo sapiens, UniProt P53350); experiment: PLK1 level by immunoblot in MOLT4 cells
PLK1, sequence (P53350 whole entry): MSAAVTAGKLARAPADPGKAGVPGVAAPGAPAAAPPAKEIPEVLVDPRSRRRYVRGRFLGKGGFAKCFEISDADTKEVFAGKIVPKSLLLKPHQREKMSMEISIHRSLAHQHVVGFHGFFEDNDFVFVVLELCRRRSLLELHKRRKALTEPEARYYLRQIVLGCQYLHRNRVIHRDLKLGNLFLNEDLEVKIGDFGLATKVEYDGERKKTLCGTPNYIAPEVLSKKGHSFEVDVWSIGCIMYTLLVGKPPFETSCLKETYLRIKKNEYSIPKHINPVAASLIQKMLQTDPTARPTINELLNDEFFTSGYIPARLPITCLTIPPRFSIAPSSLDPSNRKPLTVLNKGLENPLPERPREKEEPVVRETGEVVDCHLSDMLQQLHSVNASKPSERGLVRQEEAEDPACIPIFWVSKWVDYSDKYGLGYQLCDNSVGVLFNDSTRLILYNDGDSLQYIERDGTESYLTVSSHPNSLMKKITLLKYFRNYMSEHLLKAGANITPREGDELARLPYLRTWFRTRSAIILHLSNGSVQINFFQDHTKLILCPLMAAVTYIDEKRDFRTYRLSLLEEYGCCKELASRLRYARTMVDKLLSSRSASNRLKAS
Method: as §1
Immunoblotting: Cells were washed with phosphate-buffered saline (PBS) and then lysed using radioimmunoprecipitation assay (RIPA) buffer supplemented with protease and phosphatase inhibitor cocktail (Roche) on ice for 15 minutes. The lysates were centrifuged at 14,000 rpm for 15 minutes at 4° C. and protein was quantified by bicinchoninic acid (BCA) assay (Pierce™). […]
FIG. 2A is an immunoblot showing that compound 13 degraded Wee1 after a 6-hour treatment in MOLT4 cells, and induced the downstream changes expected from Wee1 loss—including a decrease in phosphorylated cyclin-dependent kinase 1 (pCDK1) (Y15) and an increase in pH 3. […] Proteins of interest were then assessed by western blotting.

Wee1, sequence (P30291 whole entry): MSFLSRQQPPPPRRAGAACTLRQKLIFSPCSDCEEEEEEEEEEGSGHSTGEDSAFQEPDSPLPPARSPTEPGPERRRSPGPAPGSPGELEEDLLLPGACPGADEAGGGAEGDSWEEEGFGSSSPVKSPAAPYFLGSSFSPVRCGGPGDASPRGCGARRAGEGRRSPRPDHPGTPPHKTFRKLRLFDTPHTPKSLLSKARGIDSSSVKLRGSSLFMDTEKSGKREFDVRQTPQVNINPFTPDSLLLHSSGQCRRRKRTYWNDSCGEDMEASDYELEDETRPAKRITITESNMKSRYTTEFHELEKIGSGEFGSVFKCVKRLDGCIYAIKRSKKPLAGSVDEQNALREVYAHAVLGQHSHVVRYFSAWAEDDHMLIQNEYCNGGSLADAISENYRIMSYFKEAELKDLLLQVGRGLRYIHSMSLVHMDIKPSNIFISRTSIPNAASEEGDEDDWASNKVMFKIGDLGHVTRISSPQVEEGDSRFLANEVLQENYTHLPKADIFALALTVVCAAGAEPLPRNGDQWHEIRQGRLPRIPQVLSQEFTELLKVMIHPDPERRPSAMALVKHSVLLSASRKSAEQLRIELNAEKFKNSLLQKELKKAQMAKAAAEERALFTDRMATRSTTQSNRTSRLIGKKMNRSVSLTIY

In the case of `C=CCn1c(=O)c2cnc(Nc3ccc(N4CCN(CCCNc5cccc6c5C(=O)N(C5CCC(=O)NC5=O)C6=O)CC4)cc3)nc2n1-c1cccc(C(C)(C)O)n1` (stereo not drawn) [Compound 13, 4-((3-(4-(4-((2-allyl-1-(6-(2-hydroxypropan-2-yl)pyridin-2-yl)-3-oxo-2,3-dihydro-1H-pyrazolo[3,4-d]pyrimidin-6-yl)amino)phenyl)piperazin-1-yl)propyl)amino)-2-(2,6-dioxopiperidin-3-yl)isoindoline-1,3-dione], the “Concentration giving maximal Wee1 degradation” value (Wee1) is reported as 100 nM, the “Dose from which pCDK1 Y15 is decreased” value (pCDK1 Y15; CRBN−/− MOLT4 cells) is reported as 1 μM and the “Fold lower doses than AZD1775 for the same downstream effects” value (pCDK1 Y15; MOLT4 cells) is reported as “up to 10 fold”. The “Dose from which pCDK1 Y15 is reduced” value (pCDK1 Y15; parental MOLT4 cells) was 100 nM, the PLK1 degradation (PLK1; 6-hour treatment) was “not degraded” and the PLK1 levels (PLK1; treated for up to 48 hrs) was “not reduced”.
